From ChEMBL document CHEMBL6114995, “Discovery of novel imidazo[1,2-b]pyridazine derivatives as potent covalent inhibitors of CDK12/13” (Eur J Med Chem, 2025)
Each block holds one compound with its values, some of them ahead of it. The source made the active and inactive calls. The calls are words filed in the database; no cut-off is given here.

Key:
MDA-MB-231 [1] = assay: cells; conditions: Homo sapiens, MDA-MB-231, 96 h
Description: Antiproliferative activity against human MDA-MB-231 cells assessed as inhibition of cell growth incubated for 96 hrs cellcounting-lite analysis

MDA-MB-468 = assay: cells; conditions: Homo sapiens, MDA-MB-468, 96 h
Description: Antiproliferative activity against human MDA-MB-468 cells assessed as inhibition of cell growth incubated for 96 hrs cellcounting-lite analysis

MDA-MB-231 [2] = assay: Effect on ATM level in human MDA-MB-231 cells at 50 nM incubated for 24 hrs by Western blot analysis; type: functional, cell-based
MDA-MB-231 [3] = assay: Effect on FANCD2 mRNA level in human MDA-MB-231 cells at 50 nM incubated for 6 hrs by qRT-PCR analysis; type: functional, cell-based
MDA-MB-231 [4] = assay: Effect on SMARCC1 mRNA level in human MDA-MB-231 cells at 50 nM incubated for 6 hrs by qRT-PCR analysis; type: functional, cell-based
[5] = molecular target: T1, Cyclin-dependent kinase 12 (Homo sapiens, UniProt Q9NYV4); conditions: dose 2000.0 nM
Target sequence in this assay (Q9NYV4 whole entry, looked up): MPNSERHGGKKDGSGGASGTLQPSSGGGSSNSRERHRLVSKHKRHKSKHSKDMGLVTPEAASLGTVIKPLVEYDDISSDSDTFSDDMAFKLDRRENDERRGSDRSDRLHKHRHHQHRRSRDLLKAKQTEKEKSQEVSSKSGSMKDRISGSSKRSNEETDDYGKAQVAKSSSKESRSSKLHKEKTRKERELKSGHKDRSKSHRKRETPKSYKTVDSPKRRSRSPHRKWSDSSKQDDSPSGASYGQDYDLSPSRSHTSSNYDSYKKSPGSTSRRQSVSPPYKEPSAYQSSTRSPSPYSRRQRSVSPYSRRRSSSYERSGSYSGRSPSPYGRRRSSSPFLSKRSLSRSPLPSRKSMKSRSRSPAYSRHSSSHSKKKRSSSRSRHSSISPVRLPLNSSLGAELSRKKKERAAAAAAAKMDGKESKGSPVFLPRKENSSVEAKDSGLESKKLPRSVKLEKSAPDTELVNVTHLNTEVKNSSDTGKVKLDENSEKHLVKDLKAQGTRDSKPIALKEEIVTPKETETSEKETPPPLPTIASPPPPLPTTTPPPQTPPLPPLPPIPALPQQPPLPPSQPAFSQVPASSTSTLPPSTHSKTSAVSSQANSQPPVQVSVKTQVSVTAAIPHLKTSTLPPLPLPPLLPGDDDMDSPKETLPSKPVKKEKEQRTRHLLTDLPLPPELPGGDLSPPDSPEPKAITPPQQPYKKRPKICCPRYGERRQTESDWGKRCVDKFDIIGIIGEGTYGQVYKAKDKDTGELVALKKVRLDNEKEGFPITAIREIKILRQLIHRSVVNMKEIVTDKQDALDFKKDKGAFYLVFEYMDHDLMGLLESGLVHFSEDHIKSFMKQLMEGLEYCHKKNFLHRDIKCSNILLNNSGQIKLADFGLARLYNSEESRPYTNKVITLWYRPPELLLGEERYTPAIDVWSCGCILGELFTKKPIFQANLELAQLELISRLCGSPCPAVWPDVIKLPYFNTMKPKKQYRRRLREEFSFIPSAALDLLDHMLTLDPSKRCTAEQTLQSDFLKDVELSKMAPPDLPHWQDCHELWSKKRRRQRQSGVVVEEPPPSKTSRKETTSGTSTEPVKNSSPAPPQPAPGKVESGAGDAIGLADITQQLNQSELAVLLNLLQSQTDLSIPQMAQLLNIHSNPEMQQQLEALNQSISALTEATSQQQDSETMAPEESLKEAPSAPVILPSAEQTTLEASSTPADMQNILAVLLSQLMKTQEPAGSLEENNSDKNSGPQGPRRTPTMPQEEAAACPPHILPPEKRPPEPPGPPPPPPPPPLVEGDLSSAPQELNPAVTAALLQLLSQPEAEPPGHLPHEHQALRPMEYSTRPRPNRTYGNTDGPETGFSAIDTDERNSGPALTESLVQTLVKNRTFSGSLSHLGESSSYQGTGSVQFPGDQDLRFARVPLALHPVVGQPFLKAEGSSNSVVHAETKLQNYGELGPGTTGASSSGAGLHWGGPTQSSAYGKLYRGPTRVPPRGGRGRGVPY
Description: Inhibition of CDK12 (unknown origin) at 2000 nM relative to control

[6] = molecular target: T1, Cyclin-dependent kinase 12; assay: Inhibition of CDK12 in human MDA-MB-231 cells assessed as reduction in RNA Pol II CTD level at Ser2 residue at 2000 nM incubated for 4 hrs by Western blot analysis; type: cell-based
Target sequence in this assay (Q9NYV4 whole entry, looked up): as above

MDA-MB-231 [7] = assay: Effect on FANCI mRNA level in human MDA-MB-231 cells at 50 nM incubated for 6 hrs by qRT-PCR analysis; type: functional, cell-based
MDA-MB-231 [8] = assay: Effect on alpha-tubulin level in human MDA-MB-231 cells at 50 nM incubated for 24 hrs by Western blot analysis; type: functional, cell-based
MDA-MB-231 [9] = assay: Effect on RAD51 mRNA level in human MDA-MB-231 cells at 50 nM incubated for 6 hrs by qRT-PCR analysis; type: functional, cell-based
[10] = molecular target: T1, Cyclin-dependent kinase 12; assay: Inhibition of CDK12 in human MDA-MB-231 cells incubated for 4 hrs; type: cell-based
Target sequence in this assay (Q9NYV4 whole entry, looked up): as above

[11] = molecular target: T1, Cyclin-dependent kinase 12; assay: Inhibition of CDK12 in human MDA-MB-231 cells incubated for 10 hrs; type: cell-based
Target sequence in this assay (Q9NYV4 whole entry): as the sequence (Q9NYV4 whole entry, looked up) above

[12] = molecular target: T1, Cyclin-dependent kinase 12; assay: Inhibition of full length FLAG-tagged CDK12 (unknown origin) at Cys1039 residue expressed in HEK293T cells at 50 uM incubated for 2 hrs by mass spectrometry analysis; type: cell-based
Target sequence in this assay (Q9NYV4 whole entry, looked up): as above

MDA-MB-231 [13] = assay: Effect on cleaved PARP level in human MDA-MB-231 cells at 50 nM incubated for 24 hrs by Western blot analysis; type: functional, cell-based
[14] = molecular target: T1, Cyclin-dependent kinase 12; assay: Inhibition of CDK12 in human MDA-MB-231 cells at 100 nM measured upto 6 hrs by Western blot analysis; type: cell-based
Target sequence in this assay (Q9NYV4 whole entry, looked up): as above

MDA-MB-231 [15] = assay: Effect on BRCA1 mRNA level in human MDA-MB-231 cells at 50 nM incubated for 6 hrs by qRT-PCR analysis; type: functional, cell-based
[16] = molecular target: T1, Cyclin-dependent kinase 12; assay: Inhibition of CDK12 (unknown origin) using GSRTPMY-NH2 as substrate in presence of ATP by ADP-glo assay
Target sequence in this assay (Q9NYV4 whole entry): as the sequence (Q9NYV4 whole entry, looked up) above

MDA-MB-231 [17] = assay: Effect on ATR mRNA level in human MDA-MB-231 cells at 50 nM incubated for 6 hrs by qRT-PCR analysis; type: functional, cell-based
[18] = molecular target: T1, Cyclin-dependent kinase 12; assay: Inhibition of CDK12 in human MDA-MB-231 cells incubated for 4 hrs by immunoblotting analysis; type: cell-based
Target sequence in this assay (Q9NYV4 whole entry, looked up): as above

[19] = molecular target: T1, Cyclin-dependent kinase 12; assay: Irreversible inhibition of CDK12 in human MDA-MB-231 cells at 100 nM pretreated with compound for 4 hrs followed by compound washout measured after 6 hrs; type: cell-based
MDA-MB-231 [20] = assay: Effect on ATM mRNA level in human MDA-MB-231 cells at 50 nM incubated for 6 hrs by qRT-PCR analysis; type: functional, cell-based
MDA-MB-231 [21] = assay: Effect on RAD51 level in human MDA-MB-231 cells at 50 nM incubated for 24 hrs by Western blot analysis; type: functional, cell-based
[22] = molecular target: T1, Cyclin-dependent kinase 12; conditions: MDA-MB-231, dose 200.0 nM, time 4.0 hrs
[23] = molecular target: Cyclin-dependent kinase 13 (Homo sapiens, UniProt Q14004); assay: Inhibition of CDK13 (unknown origin) using GSRTPMY-NH2 as substrate in presence of ATP by ADP-glo assay
Sequence of Cyclin-dependent kinase 13 (Q14004 whole entry, the tested form may be a part): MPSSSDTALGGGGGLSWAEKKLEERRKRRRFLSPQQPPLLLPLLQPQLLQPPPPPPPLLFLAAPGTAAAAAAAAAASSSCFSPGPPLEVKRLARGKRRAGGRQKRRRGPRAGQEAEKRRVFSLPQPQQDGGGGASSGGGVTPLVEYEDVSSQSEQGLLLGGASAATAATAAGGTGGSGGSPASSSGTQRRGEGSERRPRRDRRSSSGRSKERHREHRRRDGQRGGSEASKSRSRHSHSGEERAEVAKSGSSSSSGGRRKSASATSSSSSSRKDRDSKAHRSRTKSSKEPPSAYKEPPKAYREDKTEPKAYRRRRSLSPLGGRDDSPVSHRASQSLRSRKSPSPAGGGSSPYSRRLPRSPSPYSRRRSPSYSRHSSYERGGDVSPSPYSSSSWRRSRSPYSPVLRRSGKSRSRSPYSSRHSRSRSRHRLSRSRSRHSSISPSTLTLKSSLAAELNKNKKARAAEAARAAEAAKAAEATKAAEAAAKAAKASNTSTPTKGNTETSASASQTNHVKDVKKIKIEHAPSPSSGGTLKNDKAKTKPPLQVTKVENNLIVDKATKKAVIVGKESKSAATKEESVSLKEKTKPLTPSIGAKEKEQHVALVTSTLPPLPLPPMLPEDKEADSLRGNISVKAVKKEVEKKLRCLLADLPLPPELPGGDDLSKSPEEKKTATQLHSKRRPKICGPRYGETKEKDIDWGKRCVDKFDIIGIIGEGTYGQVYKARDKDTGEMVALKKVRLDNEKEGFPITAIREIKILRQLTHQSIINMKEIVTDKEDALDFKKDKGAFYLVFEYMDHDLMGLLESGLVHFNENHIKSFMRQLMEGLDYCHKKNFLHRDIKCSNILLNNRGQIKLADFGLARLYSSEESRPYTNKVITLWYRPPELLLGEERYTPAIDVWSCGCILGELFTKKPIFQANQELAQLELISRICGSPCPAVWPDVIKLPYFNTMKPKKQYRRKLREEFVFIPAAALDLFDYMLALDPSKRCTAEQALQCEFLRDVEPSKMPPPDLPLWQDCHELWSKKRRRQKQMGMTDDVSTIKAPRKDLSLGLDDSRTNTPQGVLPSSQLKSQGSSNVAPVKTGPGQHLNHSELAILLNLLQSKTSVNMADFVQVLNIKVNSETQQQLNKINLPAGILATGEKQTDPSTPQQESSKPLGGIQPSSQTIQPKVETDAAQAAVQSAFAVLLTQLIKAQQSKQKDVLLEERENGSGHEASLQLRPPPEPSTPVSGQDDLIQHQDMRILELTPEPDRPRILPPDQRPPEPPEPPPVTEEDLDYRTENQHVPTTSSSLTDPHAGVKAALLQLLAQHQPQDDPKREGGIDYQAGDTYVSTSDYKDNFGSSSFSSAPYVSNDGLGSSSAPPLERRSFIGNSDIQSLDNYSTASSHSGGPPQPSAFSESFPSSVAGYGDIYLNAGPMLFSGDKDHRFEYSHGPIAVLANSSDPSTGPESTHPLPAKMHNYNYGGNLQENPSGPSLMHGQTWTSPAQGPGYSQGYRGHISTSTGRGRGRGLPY

[24] = molecular target: T1, Cyclin-dependent kinase 12; assay: Binding affinity to CDK12 (714 to 1069 residues) in HEK293T cells assessed as increase in thermal stability at 5 uM measured for 6 hrs by cellular thermal shift assay; type: cell-based
[25] = molecular target: T1, Cyclin-dependent kinase 12; conditions: dose 200.0 nM
Description: Inhibition of CDK12 (unknown origin) at 200 nM relative to control

[26] = molecular target: T1, Cyclin-dependent kinase 12; conditions: dose 20.0 nM
Description: Inhibition of CDK12 (unknown origin) at 20 nM relative to control

[27] = molecular target: T1, Cyclin-dependent kinase 12; assay: Inhibition of CDK12 in human MDA-MB-231 cells pretreated with compound for 4 hrs followed by compound washout measured after 3 days; type: cell-based
Target sequence in this assay (Q9NYV4 whole entry): as the sequence (Q9NYV4 whole entry, looked up) above

[28] = molecular target: T1, Cyclin-dependent kinase 12; assay: Irreversible inhibition of CDK12 in human MDA-MB-231 cells at 10 uM pretreated with compound for 4 hrs followed by compound washout measured after 6 hrs; type: cell-based
[29] = molecular target: T1, Cyclin-dependent kinase 12; assay: Inhibition of CDK12 in human MDA-MB-231 cells assessed as reduction in RNA Pol II CTD level at Ser2 residue at 10 uM incubated for 4 hrs by Western blot analysis; type: cell-based
[30] = molecular target: Protein cereblon/Cyclin-K (Homo sapiens, UniProt O75909+Q96SW2); assay: PROTAC activity at CRBN/Cyclin K in human MDA-MB-231 cells assessed as reduction in cyclin K level incubated for 4 hrs by Western blot analysis; type: cell-based
Sequence of Protein cereblon/Cyclin-K (O75909 whole entry): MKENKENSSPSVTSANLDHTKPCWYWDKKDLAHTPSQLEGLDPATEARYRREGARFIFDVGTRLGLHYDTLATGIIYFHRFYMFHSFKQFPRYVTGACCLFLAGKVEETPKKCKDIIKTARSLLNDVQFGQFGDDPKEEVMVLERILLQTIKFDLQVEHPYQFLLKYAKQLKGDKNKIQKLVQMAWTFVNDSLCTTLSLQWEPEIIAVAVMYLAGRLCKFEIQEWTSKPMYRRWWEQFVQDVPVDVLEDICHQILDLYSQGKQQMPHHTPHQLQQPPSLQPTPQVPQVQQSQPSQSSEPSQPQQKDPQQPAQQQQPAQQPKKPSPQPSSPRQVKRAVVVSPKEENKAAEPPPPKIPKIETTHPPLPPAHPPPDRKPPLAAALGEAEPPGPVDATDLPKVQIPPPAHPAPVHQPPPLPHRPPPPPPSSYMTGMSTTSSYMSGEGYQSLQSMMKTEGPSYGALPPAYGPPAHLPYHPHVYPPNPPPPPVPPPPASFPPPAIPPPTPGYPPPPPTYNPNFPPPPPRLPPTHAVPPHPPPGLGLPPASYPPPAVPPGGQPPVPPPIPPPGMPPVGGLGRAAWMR
Sequence of Protein cereblon/Cyclin-K (Q96SW2 whole entry): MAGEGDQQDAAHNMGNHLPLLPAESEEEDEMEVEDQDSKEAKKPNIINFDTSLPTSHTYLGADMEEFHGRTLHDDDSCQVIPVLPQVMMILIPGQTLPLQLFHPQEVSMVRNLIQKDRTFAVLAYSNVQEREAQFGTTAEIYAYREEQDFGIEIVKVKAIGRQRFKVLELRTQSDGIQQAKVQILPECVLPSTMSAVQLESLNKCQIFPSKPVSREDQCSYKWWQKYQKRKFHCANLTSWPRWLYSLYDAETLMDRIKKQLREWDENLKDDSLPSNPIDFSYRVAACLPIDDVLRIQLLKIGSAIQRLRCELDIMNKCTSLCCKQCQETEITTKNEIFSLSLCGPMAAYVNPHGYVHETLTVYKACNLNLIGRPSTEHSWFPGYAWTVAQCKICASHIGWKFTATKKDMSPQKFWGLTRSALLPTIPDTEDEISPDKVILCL

SMILES: C=CC(=O)Nc1ccc(-c2ccc3nc(CC(=O)Nc4cc(C5CC5)[nH]n4)cn3n2)cc1OC
EC50 (MDA-MB-231 [1]): 0.0464 µM
EC50 (MDA-MB-468): 0.0409 µM

SMILES: C=CC(=O)Nc1ccc(-c2ccc3nc(CC(=O)Nc4cc(C5CC5)[nH]n4)cn3n2)cc1Cl
EC50 (MDA-MB-231 [1]): 0.0849 µM
EC50 (MDA-MB-468): 0.0479 µM

SMILES: C=CC(=O)Nc1c(F)cc(-c2ccc3nc(CC(=O)Nc4cc(C5CC5)[nH]n4)cn3n2)cc1F
EC50 (MDA-MB-231 [1]): 0.131 µM
EC50 (MDA-MB-468): 0.197 µM

SMILES: CCC(=O)Nc1ccc(-c2ccc3nc(CC(=O)Nc4cc(C5CCC5)[nH]n4)cn3n2)cc1F
inhibition [28]: Active
inhibition [29]: Active

SMILES: C=CC(=O)Nc1ccccc1-c1ccc2nc(CC(=O)Nc3cc(C4CC4)[nH]n3)cn2n1
EC50 (MDA-MB-231 [1]): 0.352 µM
EC50 (MDA-MB-468): 0.504 µM

SMILES: C=CC(=O)Nc1cccc(-c2ccc3nc(CC(=O)Nc4cc(C5CC5)[nH]n4)cn3n2)c1
EC50 (MDA-MB-231 [1]): 0.126 µM
EC50 (MDA-MB-468): 0.0283 µM

SMILES: C=CC(=O)Nc1c(C)cc(-c2ccc3nc(CC(=O)Nc4cc(C5CC5)[nH]n4)cn3n2)cc1C
EC50 (MDA-MB-231 [1]): 0.0759 µM
EC50 (MDA-MB-468): 0.0362 µM

SMILES: CCN(CC)CC(=O)N1CCN(c2nc(NCc3nc4cc(Cl)c(Cl)cc4[nH]3)c3ncn(CC)c3n2)CC1
DC50 [30]: 0.00038 µM

SMILES: CN(C)C/C=C/C(=O)Nc1ccc(C(=O)N2CCC[C@@H](Nc3ncc(Cl)c(-c4c[nH]c5ccccc45)n3)C2)cc1
inhibition [5]: 93.1%
EC50 (MDA-MB-231 [1]): 0.0263 µM
IC50 [16]: 0.0141 µM
EC50 (MDA-MB-468): 0.0069 µM
inhibition [25]: 92.7%
inhibition [26]: 59.7%

SMILES: Cn1cc(-n2cnc3c(NCc4nc5cc(Cl)c(Cl)cc5[nH]4)nc(N4CCOCC4)nc32)cn1
EC50 (MDA-MB-231 [1]): 0.0207 µM
EC50 (MDA-MB-468): 0.0203 µM

SMILES: C=CC(=O)Nc1ccc(-c2ccc3nc(CC(=O)Nc4cc(C5CC5)[nH]n4)cn3n2)cc1
EC50 (MDA-MB-231 [1]): 0.0673 µM
EC50 (MDA-MB-468): 0.0364 µM

Second part, led by results:

EC50 (MDA-MB-231 [1]): 0.0303 µM
EC50 (MDA-MB-468): 0.0135 µM
SMILES: C=CC(=O)Nc1ccc(-c2ccc3nc(CC(=O)Nc4cc(C5CC5)[nH]n4)cn3n2)cc1C

inhibition [5]: 92.5%
inhibition [6]: Active
inhibition [10]: Active
EC50 (MDA-MB-231 [1]): 0.005 µM
EC50 [11]: 0.00538 µM
inhibition [12]: Active
inhibition [14]: Active
IC50 [16]: 0.0155 µM
inhibition [18]: Active
inhibition [19]: Active
EC50 (MDA-MB-468): 0.006 µM
inhibition [22]: 100%
IC50 [23]: 0.0122 µM
Activity [24]: Active
inhibition [25]: 93%
inhibition [26]: 73.8%
EC50 [27]: 0.04 µM
SMILES: C=CC(=O)Nc1ccc(-c2ccc3nc(CC(=O)Nc4cc(C5CCC5)[nH]n4)cn3n2)cc1F
Activity (MDA-MB-231 [2]): Active
Activity (MDA-MB-231 [3]): Active
Activity (MDA-MB-231 [4]): Active
Activity (MDA-MB-231 [7]): Active
Activity (MDA-MB-231 [8]): Active
Activity (MDA-MB-231 [9]): Active
Activity (MDA-MB-231 [13]): Active
Activity (MDA-MB-231 [15]): Active
Activity (MDA-MB-231 [17]): Active
Activity (MDA-MB-231 [20]): Active
Activity (MDA-MB-231 [21]): Active

EC50 (MDA-MB-231 [1]): 2.86 µM
SMILES: C=CC(=O)Nc1ccc(-c2ccc3nc(CC(=O)Nc4cc(C(C)(C)C)on4)cn3n2)cc1F

EC50 (MDA-MB-231 [1]): 3.04 µM
EC50 (MDA-MB-468): 1.3 µM
SMILES: C=CC(=O)Nc1ccc(-c2ccc3nc(CC(=O)Nc4nc(C)cs4)cn3n2)cc1F

EC50 (MDA-MB-231 [1]): 2.93 µM
SMILES: C=CC(=O)Nc1ccc(-c2ccc3nc(CC(=O)Nc4cc(C)no4)cn3n2)cc1F

EC50 (MDA-MB-231 [1]): 0.219 µM
EC50 (MDA-MB-468): 0.354 µM
SMILES: C=CC(=O)Nc1ccc(-c2ccc3nc(CC(=O)Nc4ncc(C(C)(C)C)s4)cn3n2)cc1F

inhibition [5]: 92.1%
EC50 (MDA-MB-231 [1]): 0.12 µM
IC50 [16]: 0.0342 µM
EC50 (MDA-MB-468): 0.108 µM
inhibition [25]: 80.7%
inhibition [26]: 29.9%
SMILES: C=CC(=O)Nc1ccc(-c2ccc3nc(CC(=O)Nc4ncc(CC)s4)cn3n2)cc1F

EC50 (MDA-MB-231 [1]): 3.15 µM
EC50 (MDA-MB-468): 1.16 µM
SMILES: C=CC(=O)Nc1ccc(-c2ccc3nc(CC(=O)Nc4nc(C)c(C)s4)cn3n2)cc1F

EC50 (MDA-MB-468): 7.26 µM
SMILES: C=CC(=O)Nc1ccc(-c2ccc3nc(CC(=O)Nc4nc(C5CC5)cs4)cn3n2)cc1F

EC50 (MDA-MB-468): 4.52 µM
SMILES: C=CC(=O)Nc1ccc(-c2ccc3nc(CC(=O)Nc4cc(C)ns4)cn3n2)cc1F

EC50 (MDA-MB-231 [1]): 0.0143 µM
EC50 (MDA-MB-468): 0.0101 µM
SMILES: C=CC(=O)Nc1ccc(-c2ccc3nc(CC(=O)Nc4cc(C5CC5)[nH]n4)cn3n2)cc1F
Activity (MDA-MB-231 [2]): Active
Activity (MDA-MB-231 [3]): Active
Activity (MDA-MB-231 [4]): Active
Activity (MDA-MB-231 [7]): Active
Activity (MDA-MB-231 [8]): Active
Activity (MDA-MB-231 [9]): Active
Activity (MDA-MB-231 [13]): Active
Activity (MDA-MB-231 [15]): Active
Activity (MDA-MB-231 [17]): Active
Activity (MDA-MB-231 [20]): Active
Activity (MDA-MB-231 [21]): Active

EC50 (MDA-MB-231 [1]): 0.424 µM
EC50 (MDA-MB-468): 0.608 µM
SMILES: C=CC(=O)Nc1ccc(-c2ccc3nc(CC(=O)Nc4ncc(C(C)C)s4)cn3n2)cc1F
